The source of these data is patent publication EP0730589B1, “ISOXAZOLINE COMPOUNDS USEFUL AS […] ANTAGONISTS” (THE DU PONT MERCK PHARMACEUTICAL COMPANY, priority 1993, dated 1995).

This experiment has as its system platelet aggregation. Kind of experiment: Platelet aggregation assay (platelet rich plasma, PRP). It counts as cell-based. Conditions: inhibition of agonist-induced aggregation in human platelet rich plasma (PRP); ester prodrugs preincubated with porcine liver esterase, ADP-induced. Here is the method:
Platelet Aggregation Assay: Venous blood was obtained from the arm of a healthy human donor who was drug-free and aspirin-free for at least two weeks prior to blood collection. Blood was collected into 10 mL citrated vacutainer tubes. The blood was centrifuged for 15 minutes at 150 x g at room temperature, and platelet-rich plasma (PRP) was removed. The remaining blood was centrifuged for 15 minutes at 1500 x g at room temperature, and platelet-poor plasma (PPP) was removed. Samples were assayed on a aggregometer (PAP-4 Platelet Aggregation Profiler), using PPP as the blank (100% transmittance). 200 µL of PRP was added to each micro test tube, and transmittance was set to 0%. 20 µL of various agonists (ADP, collagen, arachidonate, epinephrine, thrombin) were added to each tube, and the aggregation profiles were plotted (% transmittance versus time). The results are expressed as % inhibition of agonist-induced platelet aggregation. For the IC50 evaluation, the test compounds were added at various concentrations prior to the activation of the platelets.
Ester prodrugs were preincubated (10^-3 M F.C.) with 100 IU/ml Porcine liver esterase (Sigma Chemical Co., St. Louis, MO, #E-3128) for 2 hours at 37 °C. Aliquots are then diluted in 0.1 M Tris, pH 7.4, to the desired concentrations. Aliquots of 20 µl of the esterase pretreated prodrugs are added to 200 µl of human platelet rich plasma. Samples were placed in platelet profiler (aggregometer) for 8 minutes at 37 °C, followed by the addition of 100 µM adenosine diphosphate (Sigma Chemical Co., St. Louis, MO, #A-6521), to induce platelet aggregation. Platelet aggregation was allowed to proceed for 5 minutes. Percent inhibition is calculated using percent aggregation in the presence of the test compound divided by percent aggregation of control, times 100. This value is subtracted from 100, yielding percent inhibition. Calculation of IC50 is performed on a Texas Instruments TI59 with an IC50 program.
Table 2 below sets forth the biological activity of representative compounds of the present invention. The indicated compounds were tested for their ability to inhibit platelet aggregation (using platelet rich plasma (PRP)). The IC50 value (the concentration of antagonist which inhibits platelet aggregation by 50% relative to a control lacking the antagonist) is shown. In Table 5 the IC50 values are expressed as: +++ = IC50 of <10 µM; ++ = ICso of 10-50 µM; + = IC50 of 50-100 µM (µM = micromolar).

Turning to `N=C(N)c1ccc(C2=NOC(CC(=O)NCCC(=O)O)C2)cc1` (racemic) [Example 1, 5(R,S)-3-[3-(4-Amidinophenyl)isoxazolin-5-ylacetyl]aminopropanoic Acid], the IC50 is less than 10 µM. The result for `CNC(=N)c1ccc(C2=NOC(CC(=O)NCCC(=O)O)C2)cc1` (racemic) [Example 21] reads less than 10 µM; that for `CCCNC(=N)c1ccc(C2=NOC(CC(=O)NCCC(=O)O)C2)cc1` (racemic) [Example 25], less than 10 µM; that for `CCCCNC(=N)c1ccc(C2=NOC(CC(=O)NCCC(=O)OCC)C2)cc1` (racemic) [Example 26, Ethyl 5(R,S)-3-[3-(4-N-n-Butylamidinophenyl)isoxazolin-5-ylacetyl]aminopropanoate], less than 10 µM.

Regarding `CCCCNC(=N)c1ccc(C2=NOC(CC(=O)NCCC(=O)O)C2)cc1` (racemic) [Example 27], the IC50 was less than 10 µM. Then `CCCCCNC(=N)c1ccc(C2=NOC(CC(=O)NCCC(=O)OCC)C2)cc1` (racemic) [Example 29], with less than 10 µM. The result for `CCOC(=O)CCNC(=O)CC1CC(c2ccc(C(=N)NCCC(C)C)cc2)=NO1` (racemic) [Example 31] reads less than 10 µM; that for `CCCCCNC(=N)c1ccc(C2=NOC(CC(=O)NCCC(=O)O)C2)cc1` (stereo not drawn) [Example 28], less than 10 µM; that for `COC(=O)CCNC(=O)CC1CC(c2ccc(C(=N)NCc3ccccc3)cc2)=NO1` (stereo not drawn) [Example 32], less than 10 µM.

By IC50 is commonly meant the midpoint of a concentration-inhibition curve.
